In patent US5250283A, “Organic contrast agent analog and method of making same” (priority 1992, dated 1993):
Structures can show the parent of a compound that is named as a salt. Where two headings read alike, the source gives them in different places.

What was measured:
[1] = Plasma concentration after i.v. IOP or TFA-IOP in rats; assay type: in vivo; conditions: rat
[2] = Tissue distribution 90 min after i.v. TFA-IOP (100 umol/kg) or IOP (100 in text, 104 umol/kg in tables) in rats; assay type: in vivo; conditions: rat; for concentration at 1.5 h / tissue uptake at 1.5 h: iv; for concentration at 1.5 h: 100 umol/kg; for Percentage of dose in tissue: Table 6; for tissue uptake at 1.5 h: in vivo, read-out: Percentage of dose per gram
Description: No standard curves were compiled for these tissues. The values given
represent concentrations generated using the LIVER analysis routine and
standard curve. Because this routine utilizes a control LIVER spectra for
background modeling, erroneous Iodine concentration values for these
tissues may result due to inappropriate background removal.

[3] = Urinary excretion after i.v. IOP or TFA-IOP in rats; assay type: in vivo; conditions: rat
[4] = Biliary excretion and bile flow after i.v. TFA-IOP (100 umol/kg) or IOP (100 in text, 104 umol/kg in tables) in rats; conditions: for Percentage of dose per kg. body wt.: rat bile, i.v.
Experimental: Tissues examined included liver, spleen, upper GI, lower GI, kidney, lung and heart. The length of each study was 90 minutes, during which time bile, urine and plasma samples were taken to monitor uptake and excretion. NMR relaxation rates for liver and plasma were also examined to note whether uptake of either compound might possible alter these parameters.

[5] = i.v., 90 min, Table 1, liver standard curve, may be erroneous

CCC(Cc1c(I)cc(I)c(NC(=O)C(F)(F)F)c1I)C(=O)O (stereo not shown) [TFA-IOP, N-trifluoroacetyl-iopanoic acid]
concentration at 10 min ([1]; plasma, iv, 100 umol/kg, 10 min): 863 µM
concentration at 20 min ([1]; plasma, iv, 100 umol/kg, 20 min): 604 µM
concentration at 0.5 h ([1]; plasma, iv, 100 umol/kg, 30 min): 573 µM
concentration at 40 min ([1]; plasma, iv, 100 umol/kg, 40 min): 510 µM
concentration at 50 min ([1]; plasma, iv, 100 umol/kg, 50 min): 469 µM
concentration at 1 h ([1]; plasma, iv, 100 umol/kg, 60 min): 415 µM
concentration at 70 min ([1]; plasma, iv, 100 umol/kg, 70 min): 374 µM
concentration at 80 min ([1]; plasma, iv, 100 umol/kg, 80 min): 403 µM
concentration at 1.5 h ([1]; plasma, iv, 100 umol/kg, 90 min): 360 µM
Plasma concentration ([1]; 0 min): 0 nM
concentration at 1.5 h ([2]; heart, i.v., 90 min, liver standard curve used, may be erroneous, read-out: Heart concentration): 243 µM
% of dose in kidney ([2]; i.v., 90 min, Table 1): 0.34%
% of dose in liver ([2]; i.v., 90 min, Table 1): 6.04%
% of dose in heart [2, 5]: 0.72%
% of dose in lower GI [2, 5]: 0.63%
% of dose in lung [2, 5]: 0.83%
% of dose in spleen [2, 5]: 0.24%
% of dose in upper GI [2, 5]: 0.41%
Percentage of dose per kg b.wt. ([2]; i.v., 90 min, heart): 1.66 PERCENTAGE OF DOSE per kg b.wt
uMoles in tissue ([2]; i.v., 90 min, heart): .31 µmol
uMoles per gram tissue ([2]; i.v., 90 min, heart): .24 uMOLES per gram
uMoles per kg ([2]; i.v., 90 min, heart): 242.85 uMOLES per kg
Percentage of dose in tissue ([2]; i.v., 90 min, heart): .72 PERCENTAGE OF DOSE
Percentage of dose per kg b.wt. ([2]; i.v., 90 min, kidney): .78 PERCENTAGE OF DOSE per kg b.wt
uMoles in tissue ([2]; i.v., 90 min, kidney): .15 µmol
uMoles per gram tissue ([2]; i.v., 90 min, kidney): .06 uMOLES per gram
uMoles per kg ([2]; i.v., 90 min, kidney): 57.84 uMOLES per kg
Percentage of dose in tissue ([2]; i.v., 90 min, kidney): .34 PERCENTAGE OF DOSE
Percentage of dose per kg b.wt. ([2]; i.v., 90 min, liver): 13.88 PERCENTAGE OF DOSE per kg b.wt
uMoles in tissue ([2]; i.v., 90 min, liver): 2.63 µmol
uMoles per gram tissue ([2]; i.v., 90 min, liver): .20 uMOLES per gram
uMoles per kg ([2]; i.v., 90 min, liver): 201.73 uMOLES per kg
Percentage of dose in tissue ([2]; i.v., 90 min, liver): 6.04 PERCENTAGE OF DOSE
Percentage of dose per kg b.wt. ([2]; i.v., 90 min, lower GI): 1.45 PERCENTAGE OF DOSE per kg b.wt
uMoles in tissue ([2]; i.v., 90 min, lower GI): .27 µmol
uMoles per gram tissue ([2]; i.v., 90 min, lower GI): .18 uMOLES per gram
uMoles per kg ([2]; i.v., 90 min, lower GI): 178.09 uMOLES per kg
Percentage of dose in tissue ([2]; i.v., 90 min, lower GI): .63 PERCENTAGE OF DOSE
Percentage of dose per kg b.wt. ([2]; i.v., 90 min, lung): 1.91 PERCENTAGE OF DOSE per kg b.wt
uMoles in tissue ([2]; i.v., 90 min, lung): .36 µmol
uMoles per gram tissue ([2]; i.v., 90 min, lung): .28 uMOLES per gram
uMoles per kg ([2]; i.v., 90 min, lung): 277.64 uMOLES per kg
Percentage of dose in tissue ([2]; i.v., 90 min, lung): .83 PERCENTAGE OF DOSE
Percentage of dose per kg b.wt. ([2]; i.v., 90 min, spleen): .55 PERCENTAGE OF DOSE per kg b.wt
uMoles in tissue ([2]; i.v., 90 min, spleen): .10 µmol
uMoles per gram tissue ([2]; i.v., 90 min, spleen): .16 uMOLES per gram
uMoles per kg ([2]; i.v., 90 min, spleen): 164.06 uMOLES per kg
Percentage of dose in tissue ([2]; i.v., 90 min, spleen): .24 PERCENTAGE OF DOSE
Percentage of dose per kg b.wt. ([2]; i.v., 90 min, upper GI): .94 PERCENTAGE OF DOSE per kg b.wt
uMoles in tissue ([2]; i.v., 90 min, upper GI): .18 µmol
uMoles per gram tissue ([2]; i.v., 90 min, upper GI): .14 uMOLES per gram
uMoles per kg ([2]; i.v., 90 min, upper GI): 140.23 uMOLES per kg
Percentage of dose in tissue ([2]; i.v., 90 min, upper GI): .41 PERCENTAGE OF DOSE
tissue uptake at 1.5 h ([2]; 90 min, heart): 0.56 %ID/g
tissue uptake at 1.5 h ([2]; 90 min, kidney): 0.13 %ID/g
tissue uptake at 1.5 h ([2]; 90 min, liver): 0.46 %ID/g
tissue uptake at 1.5 h ([2]; 90 min, lower GI): 0.41 %ID/g
tissue uptake at 1.5 h ([2]; 90 min, lung): 0.64 %ID/g
tissue uptake at 1.5 h ([2]; 90 min, spleen): 0.38 %ID/g
tissue uptake at 1.5 h ([2]; 90 min, upper GI): 0.32 %ID/g
concentration at 1.5 h ([2]; kidney, i.v., 90 min post injection, heading: kidney concentration, read-out: kidney concentration): 57.8 µM
concentration at 1.5 h ([2]; kidney, i.v., 90 min post injection, read-out: Kidney concentration): 57.8 µM
concentration at 1.5 h ([2]; liver, i.v., 90 min post injection, read-out: Liver concentration): 202 µM
concentration at 1.5 h ([2]; liver, i.v., 90 min post injection, read-out: liver concentration): 202 µM
concentration at 1.5 h ([2]; lower gi, i.v., 90 min, liver standard curve used, may be erroneous, read-out: Lower GI concentration): 178 µM
concentration at 1.5 h ([2]; lung, i.v., 90 min, liver standard curve used, may be erroneous, read-out: Lung concentration): 278 µM
concentration at 1.5 h ([2]; spleen, i.v., 90 min, liver standard curve used, may be erroneous, read-out: Spleen concentration): 164 µM
concentration at 1.5 h ([2]; upper gi, i.v., 90 min, liver standard curve used, may be erroneous, read-out: Upper GI concentration): 140 µM
Urine concentration ([3]; 0-20 min): 0 µM
Urine concentration ([3]; 20-40 min): 0 µM
Percentage of dose per kg. body wt. ([4]; 0-10 min): 6.48 PERCENTAGE OF DOSE per kg. bod
Percentage of dose per kg. body wt. ([4]; 10-20 min): 11.22 PERCENTAGE OF DOSE per kg. bod
Percentage of dose per kg. body wt. ([4]; 20-30 min): 13.78 PERCENTAGE OF DOSE per kg. bod
Percentage of dose per kg. body wt. ([4]; 30-40 min): 12.34 PERCENTAGE OF DOSE per kg. bod
Percentage of dose per kg. body wt. ([4]; 40-50 min): 12.30 PERCENTAGE OF DOSE per kg. bod
Percentage of dose per kg. body wt. ([4]; 50-60 min): 12.60 PERCENTAGE OF DOSE per kg. bod
Percentage of dose per kg. body wt. ([4]; 60-70 min): 7.73 PERCENTAGE OF DOSE per kg. bod
Percentage of dose per kg. body wt. ([4]; 70-80 min): 7.44 PERCENTAGE OF DOSE per kg. bod
Percentage of dose per kg. body wt. ([4]; 80-90 min): 6.37 PERCENTAGE OF DOSE per kg. bod
Percentage of dose per kg. body wt. ([4]; period 10-0 min (pre-injection)): .70 PERCENTAGE OF DOSE per kg. bod
Cmax at 1.5 h ([4]; rat, bile, iv, 100 umol/kg): 0.5 µM
concentration at 0 h ([4]; rat, bile, iv, 100 umol/kg): 635 µM
concentration at 5 min ([4]; rat, bile, iv, 100 umol/kg): 3010 µM
concentration at 10 min ([4]; rat, bile, iv, 100 umol/kg): 3010 µM
concentration at 0.25 h ([4]; rat, bile, iv, 100 umol/kg): 5780 µM
concentration at 20 min ([4]; rat, bile, iv, 100 umol/kg): 5780 µM
concentration at 25 min ([4]; rat, bile, iv, 100 umol/kg): 6440 µM
concentration at 0.5 h ([4]; rat, bile, iv, 100 umol/kg): 6440 µM
concentration at 35 min ([4]; rat, bile, iv, 100 umol/kg): 7800 µM
concentration at 40 min ([4]; rat, bile, iv, 100 umol/kg): 7800 µM
concentration at 50 min ([4]; rat, bile, iv, 100 umol/kg): 7640 µM
concentration at 55 min ([4]; rat, bile, iv, 100 umol/kg): 8460 µM
concentration at 1 h ([4]; rat, bile, iv, 100 umol/kg): 8460 µM
concentration at 65 min ([4]; rat, bile, iv, 100 umol/kg): 5370 µM
concentration at 70 min ([4]; rat, bile, iv, 100 umol/kg): 5370 µM
concentration at 1.25 h ([4]; rat, bile, iv, 100 umol/kg): 5310 µM
concentration at 80 min ([4]; rat, bile, iv, 100 umol/kg): 5310 µM
concentration at 85 min ([4]; rat, bile, iv, 100 umol/kg): 4660 µM
concentration at 1.5 h ([4]; rat, bile, iv, 100 umol/kg): 4660 µM
dose excreted at 1.5 h ([4]; rat, bile, iv, 100 umol/kg): 40%
